Measurements as given in PMC7337064, “Parsing the functional specificity of Siderocalin/Lipocalin 2/NGAL for siderophores and related small-molecule ligands” (Journal of Structural Biology: X, 2019).

Columns and labels:
Scn [1] = target: Scn; set-up: method as in Li et al., 2015; conditions: ref Li et al., 2015; cited from earlier work
Scn [2] = target: T1, Scn (Homo sapiens, UniProt P80188); assay: Fe-ENT/c-di-GMP competition mixing experiment (ultrafilter retentates); type: binding; conditions: Scn premixed with 25-fold molar excess c-di-GMP, then equimolar Fe-ENT, washed in ultrafilter
T1 construct: made in house
Excerpt: Li and coworkers reported that c-di-GMP could compete with bacterial ferric siderophores for Scn binding, alleviating Scn blockade of bacterial iron acquisition during infection ([Li et al., 2015]). This conclusion was based on a computational inverse docking screen, isothermal titration calorimetry (ITC) binding assays, and bacterial growth assays. However, c-di-GMP is not particularly complementary in shape to the Scn calyx, and lacks elements crucial for calyx binding, though its net negative charge does complement the overall positive charge of the calyx. Also, the reported micromolar KD by ITC for the Scn/c-di-GMP interaction was orders-of-magnitude weaker than the sub-nanomolar KDs of Scn for ferric complexes of bacterial CAM-type siderophores previously determined by FQ ([Abergel et al., 2006a], [Abergel et al., 2006b], [Goetz et al., 2002], [Hoette et al., 2008], [Miethke and Skerra, 2010]). [We noted that Li and coworkers also reported a discrepant micromolar KD for the Scn/Fe-ENT interaction by ITC.] However, this conundrum was easily resolved by a simple mixing experiment not previously performed (Fig. 7C). Colorless apo-Scn protein was premixed with a 25-fold molar excess of colorless c-di-GMP, at a concentration well above the reported micromolar KD, and allowed to equilibrate. Fe-ENT, which is colored a deep red, was then added at an equimolar ratio to Scn. […]

T1 sequence (P80188 21-198): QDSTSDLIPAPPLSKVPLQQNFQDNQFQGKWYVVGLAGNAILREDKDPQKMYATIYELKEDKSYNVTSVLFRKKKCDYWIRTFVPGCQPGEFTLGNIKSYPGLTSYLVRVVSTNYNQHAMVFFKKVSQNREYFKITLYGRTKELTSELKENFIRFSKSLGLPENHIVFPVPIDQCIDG

Nc1nc2c(ncn2[C@@H]2O[C@@H]3COP(=O)(O)O[C@H]4[C@@H](O)[C@H](n5cnc6c(=O)[nH]c(N)nc65)O[C@@H]4COP(=O)(O)O[C@H]3[C@H]2O)c(=O)[nH]1 [c-di-GMP, cyclic diguanylate monophosphate]
KD by ITC (Scn [1]): micromolar | competition with Fe-ENT for Scn binding (Scn [2]): too weak to impede binding of ferric siderophores
